Key:
[1] = Clinical trial, single-dose cross-over: pharmacokinetics of olopatadine (Example 5); assay type: in vivo; details: single dose nasal spray, human subjects
From the text: (§1) The clinical trial was a randomized, single-center, single-dose, open-label, three-period, six-sequence, cross-over study to evaluate three treatments administered as a nasal spray. […] The study consisted of a screening visit, 3 single-dose treatment periods with washout periods of 7 to 14 days between dosing in each treatment period, an early withdrawal visit if applicable, and a follow-up telephone call (or visit) 1 to 7 days after completing the third treatment period. A total of 30 subjects were randomized to 1 of 6 treatment sequences and received at least 1 dose of study drug. All 30 subjects were included in the safety analysis set and the pharmacokinetic subset. All but 2 subjects completed the study per protocol.

[2] = Clinical trial, single-dose cross-over: pharmacokinetics of mometasone furoate (Example 6); assay type: in vivo; details: single dose nasal spray, human subjects
From the text: as §1, with “administered by” for “administered as a”

| Compound | Quantifiable concentrations observed until the last time point [1] [h] | Quantifiable concentrations observed until the last time point [2] [h] |
| --- | --- | --- |
| CN(C)CC/C=C1/c2ccccc2COc2ccc(CC(=O)O)cc21 [olopatadine] | 48 |  |
| C[C@@H]1C[C@H]2[C@@H]3CCC4=CC(=O)C=C[C@]4(C)[C@@]3(Cl)[C@@H](O)C[C@]2(C)[C@@]1(OC(=O)c1ccco1)C(=O)CCl [mometasone furoate] |  | 72 |
